Residue numbers refer to the chain shown, from its start. Read-outs that look alike come from different tables or passages of the source.
Assays:
novel coronavirus = assay: organism not typed; type: cell-based, African green monkey
Vero cells = assay: Toxic effects on Vero cells by CCK-8 assay; details: 50 μmol/L and below, 48 h, CCK-8
[1] = Toxic effects on Vero cells by CCK-8 assay; details: African green monkey, Vero cells
[2] = system: respiratory syncytial virus; assay: In vitro efficacy on RSV-infected human bronchial epithelial cells (HBEC); type: cell-based; details: for Average inhibition rate (%): HBEC, RSV
Experimental: RSV with a titer of 100, TCID50 (half of the infective dose of tissue culture) was added to each of the activity test wells, culturing the cells in 37° C. and 5% CO2 incubator for 3 days, then RSV RNA was extracted from the cells by using the RNA Extraction Kit (Catlog: 74181, Qiagen), and quantified by RT-qPCR.

[3] = Stability of IL29 mutants at 50° C.; type: physicochemical; details: 50° C./75% relative humidity, reporter gene method
[4] = Stability of IL29 mutants at 50° C.; type: physicochemical; details: 50° C./75% relative humidity; for Reduction on Day 14 as compared with Point 0 (%): reversed-phase HPLC main peak
Experimental: (§1) The mobile phase A (acetonitrile:water:trifluoroacetic acid, in the volume ratio of 20:80:0.1) and the mobile phase B (acetonitrile:water:isopropanol:trifluoroacetic acid, in the volume ratio of 70:20:10:0.1) were prepared; and a chromatographic column (XBridge BEH C18 Column, 130A, 5 μm, 4.6 mm*100 mm) was used to analyze each test sample of proteins. The analytical conditions were as follows: flow rate 1.0 ml/min, acquisition time: 65 min, acquisition wavelength 214 nm, column temperature 45° C., and elution gradient as shown in Table 1 below.
Two injections of stock solution of a test sample were loaded in parallel, and the loading volume was set as15 μg-20 μg according to the sample concentration; finally, the purity of the main peak of the test sample was calculated by integrating according to the area normalization method.
The details are shown in Table 5, while the purity values at day 0 and 14 in Table 5 were used to make contrast chromatogram, as shown in FIGS. 3-10.

HEK293-ISRE-Luc cells = type: cell-based; details: for EC50: HEK293-ISRE-Luc reporter gene method; for EC50/biological activity as compared with IL29 control (in words): reporter gene method
From the text: The reporter gene method refers to ligating the promoter of interferon-stimulated response element (ISRE) to alkaline phosphatase cDNA, and transfecting them into HEK293 cells, and evaluating IL29 activity by measuring alkaline phosphatase in supernatant of HEK293 cells after IL29 stimulation (LaFleur D W, Nardelli B, Tsareva T Et al. Interferon-kappa, a novel type I interferon expressed in human keratinocytes. [J]. J. Biol. Chem., 2001, 276:39765-71).
HEK293-ISRE-Luc cells (purchased from National institutes for Food and Drug Control) were allowed to grow adherently in complete culture medium. The cells were passaged at a ratio of 1:4, 2-3 times per week, growing in complete culture medium. The cultured cells were taken to discard the culture medium, and the cells were washed once with PBS and then digested and collected; and the cell suspension containing 3.5×10^5 to 4.5×10^5 cells per 1 ml was prepared with assay culture medium (BIBCO).

[5] = type: physicochemical; details: 25° C./60% relative humidity/5000 lux
Experimental: as §1
The mobile phase A (25 mmol/L phosphate buffer, pH 7.0) and mobile phase B (25 mmol/L phosphate buffer, 0.5 mol/L sodium chloride, pH 6.7) were prepared, and a chromatographic column (Thermo ProPac WCX-10 4.0*250 mm) was used to analyze each test sample of proteins. The analytical conditions were as follows: flow rate 0.8 ml/min, acquisition time: 55 min, acquisition wavelength 214 nm, column temperature 25° C., and elution gradient as shown in Table 2 below.
The stability of IL29 mutants was detected under the condition 25° C.±2° C./60% relative humidity ±5% relative humidity/5000±500 lux, samples were taken according to Table 6, and the same method in Example 2 was used to detect the stability of IL29 mutants.

[6] = Nebulization stability test
Experimental: A jet nebulizer of PARI LCD type and TurboBOY N nebulizer pump from Germany were used for nebulization tests. 2 ml of sample was nebulized, and aerosol was collected in the manner below according to FIG. 11; as for the collected sample, the purity of each test sample of IL29 mutants was detected according to the same method as in Example 2.2.1 by reversed-phase high performance liquid phase, thereby verifying the nebulization stability of each mutant.

[7] = Positive control group, 0.03 μM

## CCC(CC)COC(=O)[C@H](C)N[P@](=O)(OC[C@H]1O[C@@](C#N)(c2ccc3c(N)ncnn23)[C@H](O)[C@@H]1O)Oc1ccccc1 [Remdesivir]
Novel coronavirus; [7]
  Ct Value 1: 17.05
  Ct Value 2: 16.86
  Ct Value 3: 17.71
  Ct Value Mean: 17.21
Novel coronavirus; Positive control group, 0.1 μM
  Ct Value 1: 17.63
  Ct Value 2: 17.75
  Ct Value 3: 17.57
  Ct Value Mean: 17.65
Novel coronavirus; Positive control group, 0.3 μM
  Ct Value 1: 20.83
  Ct Value 2: 20.76
  Ct Value 3: 19.75
  Ct Value Mean: 20.45
Novel coronavirus; Positive control group, 1 μM
  Ct Value 1: 27.63
  Ct Value 2: 26.97
  Ct Value 3: 26.91
  Ct Value Mean: 27.17
Novel coronavirus; Positive control group, 3 μM
  Ct Value 1: 30.57
  Ct Value 2: 33.96
  Ct Value 3: 33.11
  Ct Value Mean: 32.55
Novel coronavirus; Positive control group, 10 μM
  Ct Value 1: 34.85
  Ct Value 2: 33.56
  Ct Value 3: 34.75
  Ct Value Mean: 34.39
Novel coronavirus; Vero, Positive control group, 0.03 μM, read-out: Average inhibition rate (%)
  inhibition at 0.03 µM: 17.5%
Novel coronavirus; Vero, Positive control group, 0.1 μM, read-out: Average inhibition rate (%)
  inhibition at 0.1 µM: 39.3%
Novel coronavirus; Vero, Positive control group, 0.3 μM, read-out: Average inhibition rate (%)
  inhibition at 0.3 µM: 91.3%
Novel coronavirus; Vero, Positive control group, 1 μM, read-out: Average inhibition rate (%)
  inhibition at 1 µM: 99.9%
Novel coronavirus; Vero, Positive control group, 3 μM, read-out: Average inhibition rate (%)
  inhibition at 3 µM: 100%
Novel coronavirus; Vero, Positive control group, 10 μM, read-out: Average inhibition rate (%)
  inhibition at 10 µM: 100%
Novel coronavirus; Vero, positive control group
  IC50: 120 nM
Novel coronavirus; positive control group, concentrations of 0.3 µM and above
  inhibition against the virus: ≥ 90%
Vero cells
  toxic effect on Vero cells: no obvious toxic effect
[1]
  CC50 at 48 h: > 50000 nM

## O=c1n(Cc2nc3ccccc3n2CCCCO)c2cnccc2n1C1CC1 [BMS-433771]
[2]; HBEC cell model, RSV RNA by RT-qPCR
  EC50: 213 nM
[2]; 10 nM
  Average inhibition rate (%): 31.65%
[2]; 50 nM
  Average inhibition rate (%): 29.30%
[2]; 250 nM
  Average inhibition rate (%): 85.31%
[2]; 1250 nM
  Average inhibition rate (%): 97.91%

B1: IL29DE (protein)
chain: MKPTTTGKGCHIGRFKSLSPQELASFKKARDALEESLKLKNWSCSSPVFPGNWDLRLLQVRERPVALEAELALTLKVLEAAAGPALEDVLDQPLHTLHHILSQLQACIQPQPTAGPRPRGRLHHWLHRLQEAPKKESAGCLEASVTFNLFRLLTRDLKYVAEGNLCLRTSTHPEST
[3]
  biological activity in 14 days at 50° C.: basically unchanged
[4]; Day 7
  Main peak (%), reversed-phase HPLC purity: 89.35%
[4]; Day 14
  Main peak (%), reversed-phase HPLC purity: 77.39%
[4]; Point 0
  Main peak (%), reversed-phase HPLC purity: 92.68%
[4]
  Reduction on Day 14 as compared with Point 0 (%): 15.29%
HEK293-ISRE-Luc cells
  Relative biological activity (%): 282%
  EC50: 1.697 ng/mL
  EC50/biological activity as compared with IL29 control (in words): increased by nearly three times

B2: IL29CS (protein)
chain: B1 chain with E162D, C166S
[5]; day 0
  Ion exchange purity (%): 97.00%
  Reversed-phase HPLC purity (%): 95.361%
[5]; day 5
  Ion exchange purity (%): 89.28%
  Reversed-phase HPLC purity (%): 90.756%
[5]; day 10
  Ion exchange purity (%): 77.14%
  Reversed-phase HPLC purity (%): 84.30%
[6]
  Reverse-phase purity After nebulization: 85.26%
[6]; jet nebulizer, 2 ml sample
  Reverse-phase purity Before nebulization: 96.65%
[6]; reverse-phase purity
  Difference between purity before and after nebulization: 10.39%
[4]; Day 7
  Main peak (%), reversed-phase HPLC purity: 64.66%
[4]; Day 14
  Main peak (%), reversed-phase HPLC purity: 46.20%
[4]; Point 0
  Main peak (%), reversed-phase HPLC purity: 97.03%
[4]
  Reduction on Day 14 as compared with Point 0 (%): 50.83%
HEK293-ISRE-Luc cells
  EC50: 4.639 ng/mL
  EC50/biological activity as compared with IL29 control (in words): essentially no change

B3: IL29 control: IL29 wild-type protein, amino acid sequence SEQ ID NO: 1 with an additional M amino acid at the N-terminal (protein)
chain: KPTTTGKGCHIGRFKSLSPQELASFKKARDALEESLKLKNWSCSSPVFPGNWDLRLLQVRERPVALEAELALTLKVLEAAAGPALEDVLDQPLHTLHHILSQLQACIQPQPTAGPRPRGRLHHWLHRLQEAPKKESAGCLEASVTFNLFRLLTRDLKYVADGNLCLRTSTHPEST
modifications: additional N-terminal Met
[4]; Day 7
  Main peak (%), reversed-phase HPLC purity: 56.70%
[4]; Day 14
  Main peak (%), reversed-phase HPLC purity: 34.46%
[4]; Point 0
  Main peak (%), reversed-phase HPLC purity: 85.82%
[4]
  Reduction on Day 14 as compared with Point 0 (%): 51.36%
HEK293-ISRE-Luc cells
  EC50: 4.783 ng/mL
